The subject of the assay is Mycobacterium tuberculosis. The experiment in a line: Antimycobacterial activity against multidrug resistant Mycobacterium tuberculosis Praha 131 assessed as microbial growth inhibition incubated for 14 days. It counts as functional. Particulars: Praha 131, 336 h.

Values after ≈ are worked out from the molar mass of the structure shown.

By MIC is commonly meant the least concentration at which growth counts as inhibited.

For the molecule `Nc1ncnc2c1c(-c1ccccc1)cn2[C@@H]1O[C@H](CO)[C@@H](O)[C@H]1O`, the MIC turned out to be 8 µM (≈ 2.74 µg/mL).
On to `COc1ccc(-c2cn([C@@H]3O[C@H](CO)[C@@H](O)[C@H]3O)c3ncnc(N)c23)cc1`, for which the MIC was found to be 16 µM (≈ 5.96 µg/mL).
In the case of `CSc1ccc(-c2cn([C@@H]3O[C@H](CO)[C@@H](O)[C@H]3O)c3ncnc(N)c23)cc1`, the minimal inhibitory concentration (MIC) is 8 µM (≈ 3.11 µg/mL).
With `Nc1ncnc2c1c(-c1cccc3ccccc13)cn2[C@@H]1O[C@H](CO)[C@@H](O)[C@H]1O`, the MIC is 32 µM (≈ 12.6 µg/mL).
`Nc1ncnc2c1c(-c1ccc3ccccc3c1)cn2[C@@H]1O[C@H](CO)[C@@H](O)[C@H]1O`: the MIC was 4 µM (≈ 1.57 µg/mL).
The result for `Nc1ncnc2c1c(-c1ccco1)cn2[C@@H]1O[C@H](CO)[C@@H](O)[C@H]1O` reads 62.5 µM (≈ 20.8 µg/mL); that for `Nc1ncnc2c1c(-c1cccs1)cn2[C@@H]1O[C@H](CO)[C@@H](O)[C@H]1O`, 8 µM (≈ 2.79 µg/mL); that for `Nc1ncnc2c1c(-c1ccoc1)cn2[C@@H]1O[C@H](CO)[C@@H](O)[C@H]1O`, 16 µM (≈ 5.32 µg/mL).
The same measure for `Nc1ncnc2c1c(-c1ccsc1)cn2[C@@H]1O[C@H](CO)[C@@H](O)[C@H]1O`: 8 µM (≈ 2.79 µg/mL).
As for `Nc1ncnc2c1c(-c1cc3ccccc3o1)cn2[C@@H]1O[C@H](CO)[C@@H](O)[C@H]1O`, the MIC turned out to be 16 µM (≈ 6.12 µg/mL).
On to `Nc1ncnc2c1c(-c1ccc[nH]1)cn2[C@@H]1O[C@H](CO)[C@@H](O)[C@H]1O`, for which the MIC was 62.5 µM (≈ 20.7 µg/mL).
On to `Nc1ncnc2c1c(-c1cc[nH]c1)cn2[C@@H]1O[C@H](CO)[C@@H](O)[C@H]1O`, for which the minimal inhibitory concentration (MIC) worked out at 62.5 µM (≈ 20.7 µg/mL).
Turning to `Nc1ncnc2c1c(-c1cn[nH]c1)cn2[C@@H]1O[C@H](CO)[C@@H](O)[C@H]1O`, the minimal inhibitory concentration (MIC) stood at 125 µM (≈ 41.5 µg/mL).
The same measure for `Nc1ncnc2c1c(-c1cc[nH]n1)cn2[C@@H]1O[C@H](CO)[C@@H](O)[C@H]1O`: more than 250 µM.
The same measure for `C#Cc1cn([C@@H]2O[C@H](CO)[C@@H](O)[C@H]2O)c2ncnc(N)c12`: 8 µM (≈ 2.32 µg/mL).
The same measure for `Nc1ncnc2c1c(-c1c[nH]nn1)cn2[C@@H]1O[C@H](CO)[C@@H](O)[C@H]1O`: more than 250 µM.
With `Nc1ncnc2c1c(-c1nccs1)cn2[C@@H]1O[C@H](CO)[C@@H](O)[C@H]1O`, the minimum inhibitory concentration (MIC) was found to be 125 µM (≈ 43.7 µg/mL).
With `Nc1ncnc2c1c(-c1c[nH]cn1)cn2[C@@H]1O[C@H](CO)[C@@H](O)[C@H]1O`, the MIC was more than 250 µM.
`Nc1ncnc2c1c(-c1ncc[nH]1)cn2[C@@H]1O[C@H](CO)[C@@H](O)[C@H]1O`: the MIC is more than 250 µM.
The same measure for `Cc1ccc(-c2cn([C@@H]3O[C@H](CO)[C@@H](O)[C@H]3O)c3ncnc(N)c23)cc1C`: 8 µM (≈ 2.96 µg/mL); for `CC(C)c1cccc(-c2cn([C@@H]3O[C@H](CO)[C@@H](O)[C@H]3O)c3ncnc(N)c23)c1`: 32 µM (≈ 12.3 µg/mL); for `CC(C)c1ccc(-c2cn([C@@H]3O[C@H](CO)[C@@H](O)[C@H]3O)c3ncnc(N)c23)cc1`: 16 µM (≈ 6.15 µg/mL).
As for `CC(C)(C)c1ccc(-c2cn([C@@H]3O[C@H](CO)[C@@H](O)[C@H]3O)c3ncnc(N)c23)cc1`, the MIC turned out to be 62.5 µM (≈ 24.9 µg/mL).
The result for `Nc1ncnc2c1c(-c1ccc(C(F)(F)F)cc1)cn2[C@@H]1O[C@H](CO)[C@@H](O)[C@H]1O` reads 4 µM (≈ 1.64 µg/mL); that for `CC(C)Oc1ccc(-c2cn([C@@H]3O[C@H](CO)[C@@H](O)[C@H]3O)c3ncnc(N)c23)cc1`, 32 µM (≈ 12.8 µg/mL); that for `Nc1ncnc2c1c(-c1ccc3c(c1)OCO3)cn2[C@@H]1O[C@H](CO)[C@@H](O)[C@H]1O`, 8 µM (≈ 3.09 µg/mL).
On to `COc1cc(-c2cn([C@@H]3O[C@H](CO)[C@@H](O)[C@H]3O)c3ncnc(N)c23)cc(OC)c1OC`, for which the MIC is 8 µM (≈ 3.46 µg/mL).
The same measure for `Nc1ncnc2c1c(-c1ccc3c4c(cccc14)CC3)cn2[C@@H]1O[C@H](CO)[C@@H](O)[C@H]1O`: 16 µM (≈ 6.7 µg/mL).
With `Nc1ncnc2c1c(-c1cc3ccccc3c3ccccc13)cn2[C@@H]1O[C@H](CO)[C@@H](O)[C@H]1O`, the minimum inhibitory concentration (MIC) came out at 32 µM (≈ 14.2 µg/mL).
The result for `Nc1ncnc2c1c(-c1cccc3c1oc1ccccc13)cn2[C@@H]1O[C@H](CO)[C@@H](O)[C@H]1O` reads 4 µM (≈ 1.73 µg/mL); that for `Nc1ncnc2c1c(-c1cccc3c1Oc1ccccc1S3)cn2[C@@H]1O[C@H](CO)[C@@H](O)[C@H]1O`, 16 µM (≈ 7.43 µg/mL).
The same measure for `Nc1ncnc2c1c(-c1cccc3c1Sc1ccccc1S3)cn2[C@@H]1O[C@H](CO)[C@@H](O)[C@H]1O`: 125 µM (≈ 60.1 µg/mL).
In the case of `Nc1ncnc2c1c(/C=C/c1ccccc1)cn2[C@@H]1O[C@H](CO)[C@@H](O)[C@H]1O`, the minimum inhibitory concentration (MIC) was 8 µM (≈ 2.95 µg/mL).
The result for `Nc1ncnc2c1c(-c1ccc(-c3ccccc3)cc1)cn2[C@@H]1O[C@H](CO)[C@@H](O)[C@H]1O` reads 4 µM (≈ 1.67 µg/mL); that for `Nc1ncnc2c1c(-c1ccc(-c3ccc4ccccc4c3)cc1)cn2[C@@H]1O[C@H](CO)[C@@H](O)[C@H]1O`, 62.5 µM (≈ 29.3 µg/mL); that for `Nc1ncnc2c1c(-c1ccc(COc3cccc4ccccc34)cc1)cn2[C@@H]1O[C@H](CO)[C@@H](O)[C@H]1O`, 32 µM (≈ 16 µg/mL).

Values taken from ChEMBL document CHEMBL3352218, “Structural basis for inhibition of mycobacterial and human adenosine kinase by 7-substituted 7-(Het)aryl-7-deazaadenine ribonucleosides” (J Med Chem, 2014).
